The numbers were not newly measured in patent publication US20090042781A1, “Methods for Treating Diabetes” (Novo Nordisk A/S, priority 2004, published 2009), which cites them from elsewhere.

For data set [1] the following is noted: administered by gastric gavage.
The conditions of data set [2]: injected into dogs.

On to `CC(C)(Oc1ccc(C2CC2(Cl)Cl)cc1)C(=O)O` (stereo not drawn) [ciprofibrate], for which the serum gastrin level result in data set [1] is given as “increase”. As to Exendin-4, in data set [2], the blood glucose level result is on record as “lowering of the blood glucose level” and the insulin release result was “stimulate insulin release”.
